# According to patent US10745365B2, “Luminogenic and fluorogenic compounds and methods to detect molecules or conditions” (Promega Corporation, priority 2005, dated 2020):
# What was measured:
# [1] = system: thermostable luciferase (Luc 146-1H2); experiment: Light emission of thermostable luciferase with luciferin derivatives; type: biochemical
# Experimental: This stock was used to produce enzyme stock solution having of 200 μg/ml enzyme solution in 1 mg/ml BSA, 200 mM HEPES buffer, pH 8.0, 20 mM MgCl2.
# Solutions were made using a 1 M DTT solution, pH adjusted to 8.0, a 20 mM Coenzyme A solution in water (both described in examples above), a 100 mM ATP solution and water to create the following solutions: Sol′ A, 100 μM ATP; Sol′B, 100 μM ATP, 4 mM Coenzyme A; Sol′n C, 100 μM ATP, 400 mM DTT, and; Sol′n D, 100 μM ATP, 4 mM Coenzyme A and 400 mM DTT.
# (§1) After assembly, the reactions were initiated by addition of 25 μl of the thermostable luciferase stock solution above and mixing the tube contents. A 50 μl sample was immediately removed and placed in a luminometer tube and the light read and the tube then replaced in a tube rack at room temperature. While the light reading was being taken, a 5 μl sample of the remaining reaction (which was kept at room temperature) was diluted into 495 μl of 50 mM BisTris, pH 6.5, 1 mg/ml BSA, 1 mM EDTA prechilled to 4° C. and the tube mixed and placed on ice. The light produced by the samples in the luminometer tubes were re-read at 20, 40, 60, 90 and 120 minutes post enzyme addition. Additional 5 μl samples were taken and diluted as above at 60 and 120 minutes post enzyme addition. Once all these readings and samples were taken, 50 μl of the diluted samples was mixed with 50 μl of Steady Glo in luminometer tubes, the tubes incubated 10 minutes […] then the light produced was read on a Turner TD 20/20 luminometer.
# [2] = system: thermostable luciferase (Luc 146-1H2); experiment: Residual active thermostable luciferase after reaction with derivative (Steady Glo); type: biochemical
# Experimental: as §1
smiles,measurement,setting,value
O=C(O)[C@H]1CSC(c2nc3ccc(OCCCl)cc3s2)=N1 [L’in-CEE],light reading of reaction sample,"[1]; substrate 6.25, +Co A & DTT, 0 min",77.35
same,light reading of reaction sample,"[1]; substrate 6.25, +Co A & DTT, 20 min",7.958
same,light reading of reaction sample,"[1]; substrate 6.25, +Co A & DTT, 40 min",3.656
same,light reading of reaction sample,"[1]; substrate 6.25, +Co A & DTT, 60 min",2.312
same,light reading of reaction sample,"[1]; substrate 6.25, +Co A & DTT, 90 min",1.414
same,light reading of reaction sample,"[1]; substrate 6.25, +Co A & DTT, 120 min",1.134
same,light reading of reaction sample,"[1]; substrate 6.25, +Co A, 0 min",1829
same,light reading of reaction sample,"[1]; substrate 6.25, +Co A, 20 min",114
same,light reading of reaction sample,"[1]; substrate 6.25, +Co A, 40 min",57.82
same,light reading of reaction sample,"[1]; substrate 6.25, +Co A, 60 min",37.53
same,light reading of reaction sample,"[1]; substrate 6.25, +Co A, 90 min",24.66
same,light reading of reaction sample,"[1]; substrate 6.25, +Co A, 120 min",17.02
same,light reading of reaction sample,"[1]; substrate 6.25, +DTT, 0 min",72.52
same,light reading of reaction sample,"[1]; substrate 6.25, +DTT, 20 min",5.903
same,light reading of reaction sample,"[1]; substrate 6.25, +DTT, 40 min",3.073
same,light reading of reaction sample,"[1]; substrate 6.25, +DTT, 60 min",2.089
same,light reading of reaction sample,"[1]; substrate 6.25, +DTT, 90 min",1.431
same,light reading of reaction sample,"[1]; substrate 6.25, +DTT, 120 min",1.125
same,light reading of reaction sample,"[1]; substrate 6.25, Alone, 0 min",121
same,light reading of reaction sample,"[1]; substrate 6.25, Alone, 20 min",5.884
same,light reading of reaction sample,"[1]; substrate 6.25, Alone, 40 min",3.316
same,light reading of reaction sample,"[1]; substrate 6.25, Alone, 60 min",2.352
same,light reading of reaction sample,"[1]; substrate 6.25, Alone, 90 min",1.569
same,light reading of reaction sample,"[1]; substrate 6.25, Alone, 120 min",1.154
same,light reading of reaction sample,"[1]; substrate 25, +Co A & DTT, 0 min",57.98
same,light reading of reaction sample,"[1]; substrate 25, +Co A & DTT, 20 min",5.721
same,light reading of reaction sample,"[1]; substrate 25, +Co A & DTT, 40 min",3.272
same,light reading of reaction sample,"[1]; substrate 25, +Co A & DTT, 60 min",2.192
same,light reading of reaction sample,"[1]; substrate 25, +Co A & DTT, 90 min",1.379
same,light reading of reaction sample,"[1]; substrate 25, +Co A & DTT, 120 min",1.174
same,light reading of reaction sample,"[1]; substrate 25, +Co A, 0 min",489.2
same,light reading of reaction sample,"[1]; substrate 25, +Co A, 20 min",45.45
same,light reading of reaction sample,"[1]; substrate 25, +Co A, 40 min",25.08
same,light reading of reaction sample,"[1]; substrate 25, +Co A, 60 min",16.96
same,light reading of reaction sample,"[1]; substrate 25, +Co A, 90 min",11.03
same,light reading of reaction sample,"[1]; substrate 25, +Co A, 120 min",7.309
same,light reading of reaction sample,"[1]; substrate 25, +DTT, 0 min",56.59
same,light reading of reaction sample,"[1]; substrate 25, +DTT, 20 min",3.761
same,light reading of reaction sample,"[1]; substrate 25, +DTT, 40 min",2.196
same,light reading of reaction sample,"[1]; substrate 25, +DTT, 60 min",1.668
same,light reading of reaction sample,"[1]; substrate 25, +DTT, 90 min",1.274
same,light reading of reaction sample,"[1]; substrate 25, +DTT, 120 min",1.157
same,light reading of reaction sample,"[1]; substrate 25, Alone, 0 min",59.87
same,light reading of reaction sample,"[1]; substrate 25, Alone, 20 min",3.176
same,light reading of reaction sample,"[1]; substrate 25, Alone, 40 min",1.919
same,light reading of reaction sample,"[1]; substrate 25, Alone, 60 min",1.305
same,light reading of reaction sample,"[1]; substrate 25, Alone, 90 min",1.178
same,light reading of reaction sample,"[1]; substrate 25, Alone, 120 min",1.03
same,light reading of reaction sample,"[1]; substrate 100, +Co A & DTT, 0 min",25.41
same,light reading of reaction sample,"[1]; substrate 100, +Co A & DTT, 20 min",3.278
same,light reading of reaction sample,"[1]; substrate 100, +Co A & DTT, 40 min",2.027
same,light reading of reaction sample,"[1]; substrate 100, +Co A & DTT, 60 min",1.666
same,light reading of reaction sample,"[1]; substrate 100, +Co A & DTT, 90 min",1.27
same,light reading of reaction sample,"[1]; substrate 100, +Co A & DTT, 120 min",1.157
same,light reading of reaction sample,"[1]; substrate 100, +Co A, 0 min",97.88
same,light reading of reaction sample,"[1]; substrate 100, +Co A, 20 min",10.3
same,light reading of reaction sample,"[1]; substrate 100, +Co A, 40 min",7.127
same,light reading of reaction sample,"[1]; substrate 100, +Co A, 60 min",5.562
same,light reading of reaction sample,"[1]; substrate 100, +Co A, 90 min",3.969
same,light reading of reaction sample,"[1]; substrate 100, +Co A, 120 min",2.845
same,light reading of reaction sample,"[1]; substrate 100, +DTT, 0 min",22.47
same,light reading of reaction sample,"[1]; substrate 100, +DTT, 20 min",2.233
same,light reading of reaction sample,"[1]; substrate 100, +DTT, 40 min",1.292
same,light reading of reaction sample,"[1]; substrate 100, +DTT, 60 min",1.164
same,light reading of reaction sample,"[1]; substrate 100, +DTT, 90 min",1.093
same,light reading of reaction sample,"[1]; substrate 100, +DTT, 120 min",0.958
same,light reading of reaction sample,"[1]; substrate 100, Alone, 0 min",20.46
same,light reading of reaction sample,"[1]; substrate 100, Alone, 20 min",1.18
same,light reading of reaction sample,"[1]; substrate 100, Alone, 40 min",0.868
same,light reading of reaction sample,"[1]; substrate 100, Alone, 60 min",0.788
same,light reading of reaction sample,"[1]; substrate 100, Alone, 90 min",0.627
same,light reading of reaction sample,"[1]; substrate 100, Alone, 120 min",0.544
same,light value of diluted reaction sample in Steady Glo,"[2]; substrate 6.25, +Co A & DTT, sample taken 0 min",1836
same,light value of diluted reaction sample in Steady Glo,"[2]; substrate 6.25, +Co A & DTT, sample taken 60 min",1625
same,light value of diluted reaction sample in Steady Glo,"[2]; substrate 6.25, +Co A & DTT, sample taken 120 min",1622
same,light value of diluted reaction sample in Steady Glo,"[2]; substrate 6.25, +Co A, sample taken 0 min",1647
same,light value of diluted reaction sample in Steady Glo,"[2]; substrate 6.25, +Co A, sample taken 60 min",976.8
same,light value of diluted reaction sample in Steady Glo,"[2]; substrate 6.25, +Co A, sample taken 120 min",921.4
same,light value of diluted reaction sample in Steady Glo,"[2]; substrate 6.25, +DTT, sample taken 0 min",1631
same,light value of diluted reaction sample in Steady Glo,"[2]; substrate 6.25, +DTT, sample taken 60 min",1544
same,light value of diluted reaction sample in Steady Glo,"[2]; substrate 6.25, +DTT, sample taken 120 min",1695
same,light value of diluted reaction sample in Steady Glo,"[2]; substrate 6.25, Alone, sample taken 0 min",1402
same,light value of diluted reaction sample in Steady Glo,"[2]; substrate 6.25, Alone, sample taken 60 min",1158
same,light value of diluted reaction sample in Steady Glo,"[2]; substrate 6.25, Alone, sample taken 120 min",1073
same,light value of diluted reaction sample in Steady Glo,"[2]; substrate 25, +Co A & DTT, sample taken 0 min",529.6
same,light value of diluted reaction sample in Steady Glo,"[2]; substrate 25, +Co A & DTT, sample taken 60 min",1268
same,light value of diluted reaction sample in Steady Glo,"[2]; substrate 25, +Co A & DTT, sample taken 120 min",1329
same,light value of diluted reaction sample in Steady Glo,"[2]; substrate 25, +Co A, sample taken 0 min",1547
same,light value of diluted reaction sample in Steady Glo,"[2]; substrate 25, +Co A, sample taken 60 min",777.5
same,light value of diluted reaction sample in Steady Glo,"[2]; substrate 25, +Co A, sample taken 120 min",588.7
same,light value of diluted reaction sample in Steady Glo,"[2]; substrate 25, +DTT, sample taken 0 min",1116
same,light value of diluted reaction sample in Steady Glo,"[2]; substrate 25, +DTT, sample taken 60 min",1372
same,light value of diluted reaction sample in Steady Glo,"[2]; substrate 25, +DTT, sample taken 120 min",1393
same,light value of diluted reaction sample in Steady Glo,"[2]; substrate 25, Alone, sample taken 0 min",1345
same,light value of diluted reaction sample in Steady Glo,"[2]; substrate 25, Alone, sample taken 60 min",973.4
same,light value of diluted reaction sample in Steady Glo,"[2]; substrate 25, Alone, sample taken 120 min",860.3
same,light value of diluted reaction sample in Steady Glo,"[2]; substrate 100, +Co A & DTT, sample taken 0 min",1745
same,light value of diluted reaction sample in Steady Glo,"[2]; substrate 100, +Co A & DTT, sample taken 60 min",1319
same,light value of diluted reaction sample in Steady Glo,"[2]; substrate 100, +Co A & DTT, sample taken 120 min",1343
same,light value of diluted reaction sample in Steady Glo,"[2]; substrate 100, +Co A, sample taken 0 min",1127
same,light value of diluted reaction sample in Steady Glo,"[2]; substrate 100, +Co A, sample taken 60 min",1055
same,light value of diluted reaction sample in Steady Glo,"[2]; substrate 100, +Co A, sample taken 120 min",770.5
same,light value of diluted reaction sample in Steady Glo,"[2]; substrate 100, +DTT, sample taken 0 min",1168
same,light value of diluted reaction sample in Steady Glo,"[2]; substrate 100, +DTT, sample taken 60 min",501.5
same,light value of diluted reaction sample in Steady Glo,"[2]; substrate 100, +DTT, sample taken 120 min",1478
same,light value of diluted reaction sample in Steady Glo,"[2]; substrate 100, Alone, sample taken 0 min",1262
same,light value of diluted reaction sample in Steady Glo,"[2]; substrate 100, Alone, sample taken 60 min",1203
same,light value of diluted reaction sample in Steady Glo,"[2]; substrate 100, Alone, sample taken 120 min",1273
